Assay [1] concerns PPARγ target genes. The assay can be described thus: PPARγ target gene expression (real-time qPCR) in adipose tissue, pial arteries and PA, NP Sprague Dawley rats. It is filed as in vivo, rat. As to conditions: GW9662 co-treatment. From the text: (§1) Animals and Treatment Groups: All procedures were approved by the Institutional Animal Care and Use Committee and conducted in accordance with the National Institutes of Health Guide for the Care and Use of Laboratory Animals. Female virgin NP Sprague Dawley rats (250-300 g, 14-16 weeks, Charles River, Canada) were used for all experiments and housed in the University of Vermont Animal Care Facility. Animals were randomly selected and grouped as untreated (N=4), treated with recombinant human relaxin-2 (relaxin, 4 μg/hr; N=14), relaxin plus a specific PPARγ inhibitor GW9662 (10 mg/kg daily in food; N=8), or vehicle (20 mM sodium acetate; N=14) for 10 days through osmotic minipumps (Alzet 2ML2, Durect Corp., Cupertino, Calif., USA). GW9662 treatment was started 1 day before and for the duration of relaxin treatment to ensure PPARγ was inhibited. Animals were anesthetized with 3% isoflurane and minipumps implanted subcutaneously in the back of the neck. All animals received post-surgical analgesic (buprenorphine, 50 μg/kg, s.c.). Relaxin infusion was continuous for 10 days until animals were euthanized for vessel experiments and tissue collection. The minipumps used were capable of delivering relaxin for 14 days and thus tissue collection was within this duration.
Determination of RXFP1 and PPARγ Target Gene Expression: MCA and PA from 4 untreated rats were collected to determine expression level of RXFP1, the primary relaxin receptor, using real-time qPCR methods. We also collected adipose tissue, pial arteries, and PA from vehicle, relaxin and relaxin+GW9662 groups (n=6 for each group) for determination of PPARγ target gene expression. All collected samples were stored in RNase inhibitor (1 unit/μl, RiboLock, Fermentas, Glen Burnie, Md., USA) at −80° C. for comparing expression of fatty acid translocase (FAT)/CD36 and liver X receptors-α (LXRα) for adipose tissue, and plasminogen activator inhibitor-1 (PAI-1) for vasculature. Standard techniques for real-time qPCR were performed by the Vermont Cancer Center DNA analysis facility at the University of Vermont, as described previously Cipolla et al. (2009) Stroke 40, 1451-1457. Briefly, RNA was extracted from tissues and concentration and integrity was determined by a NanoDrop ND-1000 Spectrophotometer (Wilmington, Del.) and an Agilent 2100 Bioanalyzer (Santa Clara, Calif., USA), respectively. Samples with low RNA quality were excluded. cDNA was then made by a SuperScript III Kit (Invitrogen, Carlsbad, Calif., USA). Real-time qPCR was set up as follows: 10 μL Universal PCR Master Mix (Applied Biosystems, Foster City, Calif., USA), 1 μL Assay on Demand (Applied Biosystems), 8 μL water, and 1 μL cDNA. β2-microglobulin (B2M, housekeeping control) and target genes were assessed using Assays on Demand from Applied Biosystems. […] Primers were designed across an exon-exon junction to avoid detecting genomic DNA. Thus, no DNase treatment of samples was necessary. All samples were run in duplicates using a 7900HT Sequence Detection System (Applied Biosystems). […]
Data Calculations and Statistical Analysis: Percent tone was calculated as percent decrease in ID from the passive diameter at each intravascular pressure: [1−(IDactive/IDpassive)]×100%. Outer diameter (OD) was calculated from measured ID and WT: ID+2WT. Cross-sectional area (CSA) of the wall was calculated as: [(OD/2)2−(ID/2)2]×π. Data from qPCR study were analyzed using the −2^ΔΔCT method, as described previously Livak et al. (2001) Methods 25, 402-408. […]
For orientation: Real-time PCR tracks product formation cycle by cycle.

Assay [2] deals with parenchymal arterioles (PA). Put plainly: Pressurized arteriograph: vascular reactivity and structure of PA from relaxin-treated NP Sprague Dawley rats. The settings on record: GW9662 10 mg/kg daily in food during relaxin infusion, 5 mmHg. It is filed as in vivo, rat.
Source text: as §1
Vessel Preparation and Pressurized Arteriograph System: After collecting trunk blood, the brain was quickly removed and placed in cold physiological salt solution (PSS). In the first set of experiments, PA between the M1 and M2 region of the MCA territory and the MCA from the same animals were carefully isolated from vehicle- or relaxin-treated animals and mounted on glass cannulas in a dual-chambered arteriograph such that one PA and one MCA from each animal were studied simultaneously. PA were identified as branches off the MCA that penetrated into the brain tissue, as previously described (25). In the second set of experiments, PA from the same brain region as above were dissected from relaxin+GW9662-treated animal and compared to PA from vehicle- and relaxin-treated animals. MCA were not studied in this second set of animals because there was no effect of relaxin on that segment of the vasculature. The proximal cannulas were connected to an in-line pressure transducer and a servo-null pressure control system (Living Systems Instrumentation, Burlington, Vt., USA) that allowed intravascular pressure to be maintained at a set pressure or changed at a variable rate. The distal cannulas were closed during the experiment to avoid flow-mediated responses. Temperature and pH were continuously measured and maintained at 37.0±0.5° C. and 7.40±0.05, respectively. Measurements of inner diameter (ID) and wall thickness (WT) were made via video microscopy (Living Systems Instrumentation).
Vascular Reactivity and Structural Characteristics in PA and MCA: For the first set of experiments, PA and MCA were equilibrated for 1 hour at 25 mmHg, after which myogenic activity was determined by stepwise increases in pressure from 40 to 100 mmHg for PA or 50 to 175 mmHg for MCA. ID and WT were measured at each pressure once stable. Changes in ID and WT were measured in PA only in response to small- (SKCa) and intermediate- (IKCa) conductance calcium-activated potassium channels blockers, apamin (3×10^−7 M) and TRAM-34 (10^−6 M), respectively. PA are unique in that the contribution of endothelium-derived hyperpolarizing factors (EDHF) to tone is greater than most vessels Cipolla et al. (2009) Stroke 40, 1451-1457. Thus, inhibition of SKCa/IKCa channels, a critical component in the EDHF pathway, causes constriction in PA Cipolla et al. (2009) Stroke 40, 1451-1457. We therefore assessed the effect of relaxin on constriction of PA in response to SKCa/IKCa channel inhibition in order to assess this unique pathway. […]

The subject of assay [3] is parenchymal arterioles (PA). The assay can be described thus: SKCa/IKCa channel blockers added to isolated pressurized PA. Also noted: species or system rat. As to conditions: apamin 3×10^−7 M, TRAM-34 10^−6 M in the bath. As to the method: Vascular Reactivity and Structural Characteristics in PA and MCA: For the first set of experiments, PA and MCA were equilibrated for 1 hour at 25 mmHg, after which myogenic activity was determined by stepwise increases in pressure from 40 to 100 mmHg for PA or 50 to 175 mmHg for MCA. ID and WT were measured at each pressure once stable. Changes in ID and WT were measured in PA only in response to small- (SKCa) and intermediate- (IKCa) conductance calcium-activated potassium channels blockers, apamin (3×10^−7 M) and TRAM-34 (10^−6 M), respectively. PA are unique in that the contribution of endothelium-derived hyperpolarizing factors (EDHF) to tone is greater than most vessels Cipolla et al. (2009) Stroke 40, 1451-1457. Thus, inhibition of SKCa/IKCa channels, a critical component in the EDHF pathway, causes constriction in PA Cipolla et al. (2009) Stroke 40, 1451-1457. We therefore assessed the effect of relaxin on constriction of PA in response to SKCa/IKCa channel inhibition in order to assess this unique pathway. To obtain structural measurements, ID and WT were recorded at pressures between 5 to 200 mmHg for PA or 5 to 175 mmHg for MCA after papaverine (10^−4 M) and diltiazem (10^−5 M) were added to the bath. For the second set of experiments in which animals were treated with relaxin+GW9662, passive structural measurements were made as described above.

Assay [4] concerns parenchymal arterioles (PA). Put plainly: Pressurized arteriograph: vascular reactivity and structure of PA from female SHR. As to conditions: SHR-F-Rln-Axi vs SHR-F-Rln. It is filed as in vivo, rat. As to the method:
A separate group of SHR-F was used to determine if relaxin crosses the BBB by treating with relaxin (4 μg/hr) for 14 days and measuring relaxin concentration in cerebrospinal fluid (CSF) and serum (SHR-F-Rln-CSF, n=4). For the osmotic pump implant, animals were anesthetized with 3% isoflurane and minipumps implanted subcutaneously in the back of the neck. All animals received post-surgical analgesia (buprenorphine, 50 μg/kg, s.c.). Relaxin infusion was continuous for 14 days until animals were euthanized for isolated vessel experiments and tissue collection.
After collecting trunk blood, the brain was quickly removed and placed in cold physiological salt solution (PSS). PA between the M1 and M2 region of the MCA territory and the MCA from the same animals were carefully isolated from WKY-F, SHR-F, and SHR-F-Rln groups and mounted on glass cannulas. PA were identified as branches off the MCA that penetrated into the brain tissue, as previously described (han, S. L., and Cipolla, M. J. (2011) Relaxin causes selective outward remodeling of brain parenchymal arterioles via activation of peroxisome proliferator-activated receptor-gamma. FASEB J 25, 3229-3239). […] The proximal cannula was connected to an in-line pressure transducer and a servo-null pressure control system (Living Systems Instrumentation, Burlington, Vt., USA) that allowed intravascular pressure to be maintained at a set pressure or changed at a variable rate. The distal cannula was closed during the experiment to avoid flow-mediated responses. Temperature and pH were continuously measured and maintained at 37.0±0.5° C. and 7.40±0.05, respectively. Measurements of inner diameter (ID) and wall thickness (WT) were made via video microscopy (Living Systems Instrumentation, Burlington, Vt.).
PA and MCA were equilibrated for 1 hour, after which myogenic activity was determined by stepwise increases in pressure from 40 to 100 mmHg for PA or 50 to 175 mmHg for MCA. ID and WT were measured at each pressure once stable. Endothelium-dependent dilation was studied by adding NS309 (10^−8-10^−5 M), an activator of small- and intermediate-conductance calcium-activated potassium channels (SKCa, IKCa). NS309 was washed out of the bath and a single concentration of the nitric oxide synthase (NOS) inhibitor L-nitro-n-arginine (L-NNA, 10^−4 M) added to the bath. Constriction to NOS inhibition was used as an additional indicator of endothelial function. In the presence of L-NNA, sodium nitroprusside (SNP, 10^−8-10^−5 M) was added to the bath to assess endothelium-independent vasodilation. To obtain structural measurements, ID and WT were recorded at pressures between 5 to 200 mmHg for PA or 5 to 175 mmHg for MCA in zero-calcium PSS containing ethylene glycol tetra-acetic acid (EGTA) and outer diameter (OD) and distensibility calculated.
Percent tone was calculated as percent decrease in ID from the passive diameter at each intravascular pressure: [1−(IDactive/IDpassive)]×100. Percent reactivity for vasodilators was calculated as ((IDdose−IDstart)/(IDpassive−IDstart))×100. Percent constriction for vasoconstrictor was calculated as (1−(IDdose/IDstart))×100. OD was calculated from measured ID and WT: ID+2WT. Distensibility at a given pressure was calculated as (IDpassive−IDoriginal)/(IDoriginal)×100, where IDoriginal is defined as passive inner diameter determined at lowest pressure (5 mmHg). Data from qPCR study were analyzed using the −2^ΔΔCT method, as described previously (Livak, K. J., and Schmittgen, T. D. (2001) Analysis of relative gene expression data using real-time quantitative PCR and the 2(−Delta Delta C(T)) Method. Methods 25, 402-408). Data were removed when the Ct values of technical replicates differed by more than 0.5.

`O=C(Nc1ccccc1)c1cc([N+](=O)[O-])ccc1Cl` [GW9662, reference compound]: the “Relaxin-induced change of CD36 gene expression in adipose tissue” value in assay [1] is listed as “normalized”. Besides, the “Structural changes of PA induced by relaxin” value in assay [2] is “prevented”. For the molecule `Clc1ccccc1C(c1ccccc1)(c1ccccc1)n1cccn1` [TRAM-34], the “Vasoconstriction of PA” value in assay [3] is “greater vasoconstriction”. In the case of `CNC(=O)c1ccccc1Sc1ccc2c(/C=C/c3ccccn3)n[nH]c2c1` [axitinib, reference compound], the “Relaxin-induced increased distensibility of PA” value in assay [4] was “no effect”.

The record behind these values is patent publication US9393288B2, “Methods of treating diseases associated with PPARγ” (The University of Vermont and State Agricultural College, priority 2012, dated 2016).
